49 molecules from patent EP3970494A1 (priority 2020, dated 2022) can be followed below.

One assay has as its system Phytophthora infestans. In words: microbe, parasite or virus in culture. The conditions noted are these: 168 h, read-out: Fungal growth at 31 ppm (%) PHYTIN. Format: cell-based.
The test system of the next assay is Fusarium culmorum. Kind of assay: microbe, parasite or virus in culture. Format: cell-based. The conditions noted are these: 168 h.

On to `CNC(=O)/C(=N/OC)c1cccc(C)c1CO/N=C(\C)c1cc(C(F)(F)F)c(C#N)cn1` [Example 99], for which the activity at 31 ppm with Phytophthora infestans came out at 20%.

As to `CNC(=O)/C(=N/OC)c1cccc(C)c1CO/N=C(\C)c1ncc(C(F)(F)F)s1` [Example 53, (2E)-2-Methoxyimino-N-methyl-2-[3-methyl-2-[[(E)-1-[5-(trifluoromethyl)thiazol-2-yl]ethylideneamino]oxymethyl]phenyl]acetamide], the activity at 31 ppm in the assay on Fusarium culmorum came to 21%.

For `CO/N=C(/C(=O)OC)c1cccc(C)c1CO/N=C(\C)c1cc(-c2ccc(F)cc2)on1` [Example 14], the activity at 31 ppm in the assay with Fusarium culmorum was 20%.

Regarding `CNC(=O)/C(=N/OC)c1cccc(C)c1CO/N=C(\C)c1cc(-c2ccc(F)cc2)sn1` [Example 12, (2E)-2-[2-[[(E)-1-[5-(4-Fluorophenyl)isothiazol-3-yl]ethylideneamino]oxymethyl]-3-methyl-phenyl]-2-methoxyimino-N-methyl-acetamide], the activity at 31 ppm with Phytophthora infestans worked out at 2%; with Fusarium culmorum, 11%.

For the molecule `CNC(=O)/C(=N/OC)c1cccc(C)c1CO/N=C(\C)c1cscn1` [Example 127], the activity at 31 ppm with Phytophthora infestans is 0%.

As to `CNC(=O)/C(=N/OC)c1cccc(C)c1CO/N=C(\C)c1cccnc1` [Example 135], the activity at 31 ppm was found to be 0% in the assay with Phytophthora infestans and 19% in the assay on Fusarium culmorum.

Consider `CO/N=C(/C(=O)OC)c1cccc(C)c1CO/N=C(\C)c1ncc(C(F)(F)F)s1` [Example 123, Methyl (2E)-2-methoxyimino-2-[3-methyl-2-[[(E)-1-[5-(trifluoromethyl)thiazol-2-yl]-ethylideneamino]oxymethyl]phenyl]acetate], for which the activity at 31 ppm in the assay on Fusarium culmorum was 17%.

On to `C#Cc1cnc(/C(C)=N/OCc2c(C)cccc2/C(=N\OC)C(=O)NC)s1` [Example 61], for which the activity at 31 ppm was determined as 19% in the assay with Phytophthora infestans and 11% in the assay with Fusarium culmorum.

In the case of `CNC(=O)/C(=N/OC)c1cccc(C)c1CO/N=C(\C)c1cn(C)nc1C(F)(F)F` [Example 52], the activity at 31 ppm in the assay with Fusarium culmorum was found to be 12%.

`CNC(=O)/C(=N/OC)c1cccc(C)c1CO/N=C(\C)c1nc(C(F)(F)F)cs1` [Example 95]: the activity at 31 ppm in the assay on Fusarium culmorum came out at 17%.

With `CNC(=O)/C(=N/OC)c1cccc(C)c1CO/N=C(\C)c1cncc(C(F)(F)F)c1` [Example 85, (2E)-2-methoxyimino-N-methyl-2-[3-methyl-2-[[(E)-1-[5-(trifluoromethyl)-3-pyridyl]-ethylideneamino]oxymethyl]phenyl]acetamide], the values for the activity at 31 ppm in the assay with Phytophthora infestans and in the assay with Fusarium culmorum were 0% and 16%, respectively.

`CNC(=O)/C(=N/OC)c1cccc(C)c1CO/N=C(\C)c1ncccc1F` [Example 77]: the activity at 31 ppm came out at 0% in the assay on Phytophthora infestans and 11% in the assay on Fusarium culmorum.

On to `CNC(=O)/C(=N/OC)c1cccc(C)c1CO/N=C(\C)c1cncc(C(F)(F)F)n1` [Example 89, (2E)-2-Methoxyimino-N-methyl-2-[3-methyl-2-[[(E)-1-[6-(trifluoromethyl)pyrazin-2-yl]ethylideneamino]oxymethyl]phenyl]acetamide], for which the activity at 31 ppm in the assay on Phytophthora infestans was determined as 0%; in the assay with Fusarium culmorum, 13%.

Take `CNC(=O)/C(=N/OC)c1cccc(C)c1CO/N=C(\C)c1ncc(-c2ccc(F)cc2)s1` [Example 78, (2E)-2-[2-[[(E)-1-[5-(4-fluorophenyl)thiazol-2-yl]ethylideneamino]oxymethyl]-3-methyl-phenyl]-2-methoxyimino-N-methyl-acetamide]: the results for the activity at 31 ppm with Phytophthora infestans and in the assay on Fusarium culmorum were 3% and 16%, respectively.

Regarding `CO/N=C(/C(=O)OC)c1cccc(C)c1CO/N=C(\C)c1cncc(F)c1` [Example 75], the activity at 31 ppm in the assay with Phytophthora infestans came to 0%.

Consider `CNC(=O)/C(=N/OC)c1cccc(C)c1CO/N=C(\C)c1cn(C)nc1C(F)F` [Example 50], for which the activity at 31 ppm in the assay with Phytophthora infestans turned out to be 0%; with Fusarium culmorum, 18%.

Regarding `CNC(=O)/C(=N/OC)c1cccc(C)c1CO/N=C(\C)c1cc(C#N)cc(Cl)n1` [Example 63], the figures for the activity at 31 ppm in the assay on Phytophthora infestans and in the assay with Fusarium culmorum were 0% and 18%, respectively.

Consider `CO/N=C(/C(=O)OC)c1cccc(C)c1CO/N=C(\C)c1cn(C)nc1C(F)F` [Example 49], for which the activity at 31 ppm turned out to be 0% in the assay on Phytophthora infestans and 17% in the assay with Fusarium culmorum.

Consider `CNC(=O)/C(=N/OC)c1cccc(C)c1CO/N=C(\C)c1ccnc(C(F)(F)F)c1` [Example 48], for which the activity at 31 ppm in the assay on Phytophthora infestans worked out at 1%; in the assay with Fusarium culmorum it was 17%.

With `CO/N=C(/C(=O)OC)c1cccc(C)c1CO/N=C(\C)c1cc(-c2ccccc2)sn1` [Example 36], the activity at 31 ppm with Phytophthora infestans was 10%.

`CNC(=O)/C(=N/OC)c1cccc(C)c1CO/N=C(\C)c1ccc(Cl)nn1` [Example 92]: the activity at 31 ppm was 0% in the assay on Phytophthora infestans and 17% in the assay with Fusarium culmorum.

`CO/N=C(/C(=O)OC)c1cccc(C)c1CO/N=C(\C)c1cc(C(F)(F)F)cc(Cl)n1` [Example 42] came in with an activity at 31 ppm in the assay on Fusarium culmorum of 10%.

`CNC(=O)/C(=N/OC)c1cccc(C)c1CO/N=C(\C)c1ccc(C#CC2CC2)cn1` [Example 112]: the activity at 31 ppm with Phytophthora infestans was found to be 2%; with Fusarium culmorum, 21%.

For the molecule `CNC(=O)/C(=N/OC)c1cccc(C)c1CO/N=C(\C)c1cnc(C(F)(F)F)cn1` [Example 97, (2E)-2-methoxyimino-N-methyl-2-[3-methyl-2-[[(E)-1-[5-(trifluoromethyl)pyrazin-2-yl]ethylideneamino]oxymethyl]phenyl]acetamide], the activity at 31 ppm came to 0% in the assay with Phytophthora infestans and 17% with Fusarium culmorum.

Turning to `CO/N=C(/C(=O)OC)c1cccc(C)c1CO/N=C(\C)c1ncc(-c2ccc(F)cc2)s1` [Example 79, Methyl (2E)-2-[2-[[(E)-1-[5-(4-fluorophenyl)thiazol-2-yl]ethylideneamino]oxymethyl]-3-methyl-phenyl]-2-methoxyimino-acetate], the activity at 31 ppm with Phytophthora infestans came out at 17%; with Fusarium culmorum, 13%.

Take `CNC(=O)/C(=N/OC)c1cccc(C)c1CO/N=C(\C)c1cc(C(F)F)nc(C)n1` [Example 62]: the values for the activity at 31 ppm in the assay with Phytophthora infestans and with Fusarium culmorum were 0% and 11%, respectively.

With `CO/N=C(/C(=O)OC)c1cccc(C)c1CO/N=C(\C)c1cc(C(F)(F)F)nn1C` [Example 117, Methyl (2E)-2-methoxyimino-2-[3-methyl-2-[[(E)-1-[2-methyl-5-(trifluoromethyl)pyrazol-3-yl]ethylideneamino]oxymethyl]phenyl]acetate], the activity at 31 ppm in the assay with Fusarium culmorum was 18%.

For `CNC(=O)/C(=N/OC)c1cccc(C)c1CO/N=C(\C)c1cc(-c2cccc(C(F)(F)F)c2)sn1` [Example 39], the activity at 31 ppm is 8% with Phytophthora infestans and 14% in the assay on Fusarium culmorum.

As for `CNC(=O)/C(=N/OC)c1cccc(C)c1CO/N=C(\C)c1cc(C(F)(F)F)cc(C#N)n1` [Example 86], the activity at 31 ppm stood at 0% with Phytophthora infestans and 16% in the assay with Fusarium culmorum.

Consider `CO/N=C(/C(=O)OC)c1cccc(C)c1CO/N=C(\C)c1ccccn1` [Example 129], for which the activity at 31 ppm with Phytophthora infestans worked out at 0%.

Turning to `CNC(=O)/C(=N/OC)c1cccc(C)c1CO/N=C(\C)c1ccncc1` [Example 134], the activity at 31 ppm in the assay on Phytophthora infestans came out at 0%; in the assay with Fusarium culmorum it was 20%.

On to `CNC(=O)/C(=N/OC)c1cccc(C)c1CO/N=C(\C)c1cccc(F)n1` [Example 107], for which the activity at 31 ppm with Phytophthora infestans was 0%; in the assay with Fusarium culmorum, 16%.

In the assay with Fusarium culmorum, `C=Cc1cnc(/C(C)=N/OCc2c(C)cccc2/C(=N\OC)C(=O)NC)s1` [Example 144] had an activity at 31 ppm of 14%.

With `CNC(=O)/C(=N/OC)c1cccc(C)c1CO/N=C(/c1nccs1)C1CC1` [Example 110], the activity at 31 ppm in the assay on Phytophthora infestans is 0%.

On to `CNC(=O)/C(=N/OC)c1cccc(C)c1CO/N=C(\C)c1cc(-c2ccc(F)cc2)on1` [Example 15], for which the activity at 31 ppm amounted to 0% in the assay on Phytophthora infestans and 20% in the assay on Fusarium culmorum.

`CO/N=C(/C(=O)OC)c1cccc(C)c1CO/N=C(\C)c1ccc(C#CC2CC2)cn1` [Example 111]: the activity at 31 ppm in the assay on Phytophthora infestans was 15%.

As to `CO/N=C(/C(=O)OC)c1cccc(C)c1CO/N=C(\C)c1cc(-c2ccc(Cl)cc2)on1` [Example 18], the activity at 31 ppm in the assay with Fusarium culmorum worked out at 16%.

In the case of `CO/N=C(/C(=O)OC)c1cccc(C)c1CO/N=C(\C)c1ccncc1` [Example 130], the activity at 31 ppm in the assay on Phytophthora infestans was 0%; with Fusarium culmorum it was 17%.

On to `CNC(=O)/C(=N/OC)c1cccc(C)c1CO/N=C(\C)c1cncc(F)c1` [Example 76], for which the activity at 31 ppm in the assay on Phytophthora infestans was determined as 0%; with Fusarium culmorum, 16%.

`CNC(=O)/C(=N/OC)c1cccc(C)c1CO/N=C(/c1nccs1)C(F)F` [Example 154]: the activity at 31 ppm in the assay with Fusarium culmorum is 14%.

Turning to `CNC(=O)/C(=N/OC)c1cccc(C)c1CO/N=C(\C)c1csc(C(F)(F)F)n1` [Example 115], the activity at 31 ppm stood at 0% in the assay with Phytophthora infestans and 13% in the assay with Fusarium culmorum.

As to `CNC(=O)/C(=N/OC)c1cccc(C)c1CO/N=C(\C)c1cc(-c2cccc(C(F)(F)F)c2)on1` [Example 22, (2E)-2-Methoxyimino-N-methyl-2-[3-methyl-2-[[(E)-1-[5-[3-(trifluoromethyl)phenyl]-isoxazol-3-yl]ethylideneamino]oxymethyl]phenyl]acetamide], the activity at 31 ppm in the assay on Phytophthora infestans was 17%.

As for `CNC(=O)/C(=N/OC)c1cccc(C)c1CO/N=C(\C)c1ccc(C#CC2CC2)nc1` [Example 69], the activity at 31 ppm in the assay with Phytophthora infestans came to 0%; with Fusarium culmorum it was 11%.

As to `CO/N=C(/C(=O)OC)c1cccc(C)c1CO/N=C(\C)c1cscn1` [Example 126], the activity at 31 ppm with Phytophthora infestans was found to be 0%.

Turning to `CO/N=C(/C(=O)OC)c1cccc(C)c1CO/N=C(\C)c1cnccc1C(F)(F)F` [Example 155], the activity at 31 ppm in the assay on Fusarium culmorum worked out at 18%.

With `CNC(=O)/C(=N/OC)c1cccc(C)c1CO/N=C(\C)c1cccc(C)n1` [Example 81], the activity at 31 ppm was 0% in the assay with Phytophthora infestans and 9% with Fusarium culmorum.

On to `CO/N=C(/C(=O)OC)c1cccc(C)c1CO/N=C(\C)c1ccc(Cl)c(C(F)(F)F)c1` [Example 82], for which the activity at 31 ppm in the assay with Phytophthora infestans was determined as 3%; with Fusarium culmorum it was 17%.

Turning to `CNC(=O)/C(=N/OC)c1cccc(C)c1CO/N=C(\C)c1cc(N2CC(F)(F)C2)ccn1` [Example 90], the activity at 31 ppm with Phytophthora infestans was 0%.

Consider `CO/N=C(/C(=O)OC)c1cccc(C)c1CO/N=C(\C)c1cc(-c2ccccc2)on1` [Example 21], for which the activity at 31 ppm with Phytophthora infestans was 5%.
